Patent US10952945B2, “Formulations containing an extract of Echinacea and linoleic acid derivatives” (DR. AUGUST WOLFF GMBH & CO. KG ARZNEIMITTEL, priority 2015, dated 2021)

Target: TRPV1 (Homo sapiens, UniProt Q8NER1)
Experiment: Determination of TRPV1 agonistic activity (MTT cell viability of 293 T-VR1 cells)
Protocol: 2×10^4 293 T-VR1 cells (or parentale 293T cells as control) are cultivated in 96-well microtiter plates (Costar, Cambridge, Mass.) in 200 μL Dulbecco's Modified Eagle's Medium (DMEM), which also contains 10% foetal calf serum and 1% antibiotics (penicillin/streptomycin). The cells are incubated for 6 h with the test substances or the controls (capsaicin, TRPV1 agonist (1 μM); capsazepine, TRPV1 antagonist (10 μM); or capsaicin (1 μM) and capsazepine (10 μM)). Then, cell viability is determined.
The cytotoxic effect of the test substances was determined using the MTT (3-[4,5-dimethylthiazol-2-yl]-2,5-diphenyltetrazolium bromide) assay method. For this, 50 μL of a solution of MTT in DMEM (5 mg/mL) were added to each well. These were then incubated in the dark for 4 h at 37° C. The reaction was stopped, the residue was removed and 100 μL DMSO were added to each well. Incubation continued for 10 min with gentle shaking. Then the absorption at 550 nm was measured with a TECAN GENios Pro Plate Reader (Tecan Group Ltd., Switzerland). […] The determination was performed in triplicate.

Chain of TRPV1 (Q8NER1 whole entry, species assumed): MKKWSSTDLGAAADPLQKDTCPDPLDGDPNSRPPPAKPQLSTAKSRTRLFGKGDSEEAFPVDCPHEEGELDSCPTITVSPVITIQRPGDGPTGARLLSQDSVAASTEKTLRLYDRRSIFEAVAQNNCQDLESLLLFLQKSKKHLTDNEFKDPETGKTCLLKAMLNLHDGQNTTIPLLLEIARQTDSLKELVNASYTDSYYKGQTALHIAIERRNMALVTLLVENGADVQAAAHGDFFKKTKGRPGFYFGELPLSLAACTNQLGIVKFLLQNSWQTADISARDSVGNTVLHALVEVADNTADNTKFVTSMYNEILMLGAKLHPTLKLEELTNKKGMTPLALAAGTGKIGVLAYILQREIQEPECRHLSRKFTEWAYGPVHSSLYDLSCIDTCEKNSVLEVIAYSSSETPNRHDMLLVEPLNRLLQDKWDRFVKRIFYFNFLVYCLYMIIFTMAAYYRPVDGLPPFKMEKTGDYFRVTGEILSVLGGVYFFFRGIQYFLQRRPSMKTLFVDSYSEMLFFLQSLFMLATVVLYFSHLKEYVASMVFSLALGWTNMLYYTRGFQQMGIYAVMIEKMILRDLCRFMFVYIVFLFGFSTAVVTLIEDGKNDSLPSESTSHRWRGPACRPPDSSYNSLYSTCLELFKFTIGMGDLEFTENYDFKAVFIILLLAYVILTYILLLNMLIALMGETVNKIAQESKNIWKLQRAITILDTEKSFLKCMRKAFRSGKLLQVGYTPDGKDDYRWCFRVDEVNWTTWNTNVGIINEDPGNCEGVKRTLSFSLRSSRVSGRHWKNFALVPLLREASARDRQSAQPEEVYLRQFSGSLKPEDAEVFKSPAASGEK

Row | SMILES | cell viability (FIG. 1 experiment, capsaicin 1 μM, 293 T-VR1 cells, 6 h, percentage of vehicle control) [%] | cell viability (FIG. 2 experiment, capsaicin positive control) [%] | cell viability (FIG. 1 experiment, capsaicin (1 μM) and capsazepine (10 μM) together) [%] | cell viability (FIG. 2 experiment, capsaicin together with capsazepine) [%] | cell viability (human, 6 h, 10 μM) [%]
1 | COc1cc(CNC(=O)CCCC/C=C/C(C)C)ccc1O [capsaicin] | 54.9 | 70.6 |  |  | 
2 | Oc1cc2c(cc1O)CN(C(=S)NCCc1ccc(Cl)cc1)CCC2 [capsazepine] |  |  | 101.3 | 104.4 | 106.1
